Measurements from article PMC7355546, “Lignans, Amides, and Saponins from Haplophyllum tuberculatum and Their Antiprotozoal Activity” (Molecules, 2020).
Values joined by “and” are separate entries in the source; they are usually repeats but may differ in a detail not shown here. Identical values can stand only once. Like-named read-outs stand apart in the source and are kept apart here.

Assays:
[1] = In vitro cytotoxicity with L-6 cells (resazurin); assay type: cell-based; conditions: unit inferred, the other IC50 columns are µM, read-out: L6 Cells (cytotoxicity IC50)
Experimental: Assays were performed in 96-well microtiter plates, each well containing 100 μL of RPMI 1640 medium supplemented with 1% L-glutamine (200 mM) and 10% fetal bovine serum, and 4000 L-6 cells (a primary cell line derived from rat skeletal myoblasts). […] 10 μL of resazurin was then added to each well and the plates incubated for another 2 h. […] Podophyllotoxin (Sigma P4405) was used as control.

[2] = test system: T. b. rhodesiense (STIB 900) bloodstream forms; experiment: Activity against Trypanosoma brucei rhodesiense bloodstream forms (resazurin); assay type: cell-based; conditions: for T. b. rhodesiense SI (selectivity index): IC50 in L6 cells divided by IC50 in T. b. rhodesiense; for IC50: read-out: T. b. rhodesiense IC50; for activity against T. b. rhodesiense (in words): STIB 900
Experimental: The stock was originally isolated from a patient and adapted to axenic culture conditions after several mouse passages and cloned. Minimum Essential Medium (50 µL) supplemented with 25 mM HEPES, 1 g/L additional glucose, 1% MEM non-essential amino acids (100×), 0.2 mM 2-mercaptoethanol, 1mM Na-pyruvate and 15% heat inactivated horse serum was added to each well of a 96-well microtiter plate. […] Then 4 × 10^3 bloodstream forms of T. b. rhodesiense STIB 900 in 50 µL were added to each well and the plate incubated at 37 °C under a 5% CO2 atmosphere for 70 h. […] Melarsoprol (Arsobal Sanofi-Aventis, received from WHO) was used as control.

P. falciparum (NF54) = experiment: Activity against Plasmodium falciparum erythrocytic stages (3H-hypoxanthine incorporation); assay type: cell-based; conditions: for P. falciparum SI (selectivity index): IC50 in L6 cells divided by IC50 in P. falciparum
[3] = test system: L. donovani intracellular amastigotes in mouse peritoneal macrophages; experiment: Activity against Leishmania donovani intramacrophage amastigotes; assay type: cell-based; conditions: tested up to 30 μM
Experimental: Mouse peritoneal macrophages (4 × 10^4 in 100 µL RPMI 1640 medium with 10% heat-inactivated FBS) were seeded into wells of a 96-well plate. After 24 h, 100 µL of 2 × 10^5 amastigote Leishmania donovani were added. The amastigotes were taken from an axenic amastigote culture grown at pH 5.4. The medium containing free amastigote forms was removed after 24 h and replaced with fresh medium. The washing step was repeated and afterwards the serial drug dilution was prepared with at least 6 dilution steps. Compound was dissolved in DMSO at 10 mg/mL and further diluted in medium. After incubation for 96 h at 37 °C under a 5% CO2 atmosphere, the medium was removed and cells were fixed by adding 50 µL 4% formaldehyde solution followed by a staining with a 5 µM DRAQ5 solution. Plates were imaged in ImageXpress XLS (MD) microscope using a 20× air objective (635 nm excitation: 690/50 emission). Nine images were collected per well. Automated image analysis was performed with a script developed on Meta Xpress Software (MD). Three outputs were provided for each well: (i) number of host cell nuclei; (ii) numbers of infected and non-infected host cells; (iii) number of parasite nuclei per infected host cell. The IC50 values were calculated based on the infection rate and the numbers of intracellular amastigotes. Miltefosine was used as control.

[4] = test system: L. donovani promastigote form; parameters: method as in PMID 18688887; conditions: cited from earlier work
P. falciparum = conditions: cited from earlier work
trypanosomes = conditions: cited from earlier work
[5] = Trypanosoma brucei, STIB 900 bloodstream forms, mean of at least two independent replicates ± absolute deviation
[6] = Plasmodium falciparum, NF54, NF54, mean of at least two independent replicates ± absolute deviation, read-out: P. falciparum IC50
[7] = NF54, mean of at least two independent replicates ± absolute deviation, read-out: P. falciparum IC50
[8] = L-6 cells (rat skeletal myoblasts)
[9] = STIB 900 bloodstream forms, mean of at least two independent replicates ± absolute deviation

SMILES | T. b. rhodesiense SI (selectivity index) [2] | IC50 [2, 5] [µM] | P. falciparum SI (selectivity index) (P. falciparum (NF54)) | IC50 (P. falciparum (NF54); [6]) [µM] | IC50 at 72 h [1, 8] [µM] | further results
COc1cc([C@H]2O[C@@H](c3ccc(O)c(OC)c3)[C@@H](C)[C@H]2C)ccc1O [Compound 1, tetrahydrofuroguaiacin B] | 1.6 | 59.4 ± 2.5 | 1.8 | 53.1 ± 2 |  | IC50 at 72 h ([1]; rat skeletal myoblasts): 95.2 ± 9.3 µM
COc1cc([C@H]2O[C@@H](c3ccc(O)c(OC)c3)[C@H](C)[C@@H]2C)ccc1O [Compound 2, nectandrin B] | 2.4 | 48.3 ± 1.3 | 12.1 | 9 to 9.5 |  | IC50 at 72 h ([1]; rat skeletal myoblasts): 115 ± 2.6 µM; IC50 ([3]; Leishmania donovani, Peritoneal macrophage, read-out: activity against L. donovani in the intracellular amastigote assay): > 30 µM; activity against L. donovani in the intracellular amastigote assay [3]: not reproduced; activity against L. donovani promastigotes (in words) [4]: inactive; IC50 (P. falciparum (NF54); [7]): 9.5 ± 0.1 µM
COc1cc([C@H]2O[C@H](c3cc(OC)c(O)c(OC)c3)[C@@H](C)[C@@H]2C)cc(OC)c1O [Compound 3, fragransin B2] | 3.6 | 47.5 ± 4.5 | 4.7 | 36.1 ± 1 |  | 
COc1cc([C@H]2O[C@@H](c3cc(OC)c(O)c(OC)c3)[C@@H](C)[C@@H]2C)cc(OC)c1O [Compound 4, fragransin B1] | 3.4 | 40.7 ± 0.4 | 8.0 | 17 | 163 ± 4.5 | IC50 (P. falciparum (NF54); [7]): 17.4 ± 2.1 µM
COc1cc(CCC(=O)NCCc2ccc(O)cc2)ccc1O [Compound 5, dihydro-feruloyltyramine] |  | 206 ± 66.7 |  | 159 | > 318 | activity against T. b. rhodesiense (in words) [2]: least active; activity against P. falciparum (in words) (P. falciparum (NF54); NF54): least active
COc1cc(/C=C/C(=O)NCCc2ccc(O)cc2)ccc1O [Compound 6, (E)-N-feruloyltyramine] | 2.0 | 121 ± 36.9 | 3.6 | 68.4 ± 3.8 |  | IC50 at 72 h ([1]; rat skeletal myoblasts): 247 ± 3.7 µM; activity against T. b. rhodesiense (in words) [2]: least active
COc1cc(C(=O)/C(C)=C(/C)C(=O)c2ccc(O)c(OC)c2)ccc1O [Compound 7, furoguaiaoxidin] |  | 114 |  | 48.1 ± 10.9 | > 281 | 
COc1cc(/C=C/C(=O)NCCCCNC(=O)/C=C/c2ccc(O)c(OC)c2)ccc1O [Compound 8, N,N′-diferuloylputrescine] | 8 and 7.8 | 19 | 4.8 | 30.6 ± 8.3 | 146 ± 18.8 | IC50 [2, 9]: 18.9 ± 8.4 µM
CCOC(CNC(=O)/C=C/c1ccc(O)c(OC)c1)c1ccc(O)cc1 (centres unmarked) [Compound 9, 7′-ethoxy-feruloyltyramine] | 2.9 | 72.7 ± 30.4 | 6.8 | 30.4 ± 8 | 208 ± 21.6 | 
COc1cc(CC(C)C(CO)Cc2ccc(O)c(OC)c2)ccc1O (centres unmarked) [Compound 10, 3,3′-dimethoxy-4,4′-dihydroxylignan-9-ol] | 5 and 4.6 | 28 | 13.7 | 9 to 9.5 | 128 ± 3.9 | IC50 [2, 9]: 27.5 ± 8.4 µM; activity against P. falciparum (in words) (P. falciparum (NF54); NF54): selectively active; IC50 (P. falciparum (NF54); [7]): 9.3 ± 1.3 µM
COc1cc2c(OC)c3c(c(-c4ccc5c(c4)OCO5)c2cc1OC)C(=O)OC3 [Justicidin A] |  |  |  |  |  | activity against P. falciparum (in words) (P. falciparum): active
COc1cc2cc3c(c(-c4ccc5c(c4)OCO5)c2cc1OC)C(=O)CO3 [Justicidin B] |  |  |  |  |  | trypanocidal activity (in words) (trypanosomes): showed trypanocidal activity
CCN(CC)CCCC(C)Nc1ccnc2cc(Cl)ccc12 (centres unmarked) [chloroquine, reference compound] |  |  |  |  |  | IC50 (P. falciparum (NF54); Plasmodium falciparum, NF54, read-out: P. falciparum IC50): 0.01 µM
Nc1nc(N)nc(Nc2ccc([As]3SCC(CO)S3)cc2)n1 (centres unmarked) [melarsoprol, reference compound] |  |  |  |  |  | IC50 ([2]; Trypanosoma brucei): 0.01 µM
COc1cc([C@@H]2c3cc4c(cc3[C@H](O)[C@H]3COC(=O)[C@H]23)OCO4)cc(OC)c1OC [podophyllotoxin, reference compound] |  |  |  |  |  | IC50 at 72 h ([1]; rat skeletal myoblasts): 0.03 µM
